Assay results as given in ChEMBL document CHEMBL4706583, “2-Anilinoquinoline based arylamides as broad spectrum anticancer agents with B-RAF/C-RAF kinase inhibitory effects: Design, synthesis, in vitro cell-based and oncogenic kinase assessments” (Eur J Med Chem, 2020).
Active and inactive are the calls of the source. The calls are words filed in the database; no cut-off is given here.

Columns and labels:
[1] = species: Sus scrofa; experiment: Induction of porcine brain tubulin polymerization at 10 uM measured at 30 secs interval for 60 mins by fluorescence assay; type: tissue-based
[2] = system: Panel NCI-60 (60 carcinoma cell lines); experiment: Growth inhibition of human Panel NCI-60 (60 carcinoma cell lines) cells at 10 uM measured after 48 hrs by SRB assay relative to control; type: functional; settings: read-out: GI
[3] = system: CCRF-CEM; experiment: Growth inhibition of human CCRF-CEM cells at 10 uM measured after 48 hrs by SRB assay relative to control; type: functional; settings: read-out: GI
[4] = system: K562; experiment: Growth inhibition of human K562 cells at 10 uM measured after 48 hrs by SRB assay relative to control; type: functional; settings: read-out: GI
[5] = system: MOLT-4; experiment: Growth inhibition of human MOLT-4 cells at 10 uM measured after 48 hrs by SRB assay relative to control; type: functional; settings: read-out: GI
[6] = system: RPMI-8226; experiment: Growth inhibition of human RPMI-8226 cells at 10 uM measured after 48 hrs by SRB assay relative to control; type: functional; settings: read-out: GI
[7] = system: SR; experiment: Growth inhibition of human SR cells at 10 uM measured after 48 hrs by SRB assay relative to control; type: functional; settings: read-out: GI
[8] = system: A549; experiment: Growth inhibition of human A549 cells at 10 uM measured after 48 hrs by SRB assay relative to control; type: functional; settings: read-out: GI
[9] = system: HOP-92; experiment: Growth inhibition of human HOP-92 cells at 10 uM measured after 48 hrs by SRB assay relative to control; type: functional; settings: read-out: GI
[10] = system: NCI-H522; experiment: Growth inhibition of human NCI-H522 cells at 10 uM measured after 48 hrs by SRB assay relative to control; type: functional; settings: read-out: GI
[11] = system: HCT-116; experiment: Growth inhibition of human HCT-116 cells at 10 uM measured after 48 hrs by SRB assay relative to control; type: functional; settings: read-out: GI
[12] = system: HT-29; experiment: Growth inhibition of human HT-29 cells at 10 uM measured after 48 hrs by SRB assay relative to control; type: functional; settings: read-out: GI
[13] = system: 786-0; experiment: Growth inhibition of human 786-0 cells at 10 uM measured after 48 hrs by SRB assay relative to control; type: functional; settings: read-out: GI
[14] = system: A498; experiment: Growth inhibition of human A498 cells at 10 uM measured after 48 hrs by SRB assay relative to control; type: functional; settings: read-out: GI
[15] = system: UO-31; experiment: Growth inhibition of human UO-31 cells at 10 uM measured after 48 hrs by SRB assay relative to control; type: functional; settings: read-out: GI
[16] = system: PC-3; experiment: Growth inhibition of human PC-3 cells at 10 uM measured after 48 hrs by SRB assay relative to control; type: functional; settings: read-out: GI
[17] = system: T47D; experiment: Growth inhibition of human T47D cells at 10 uM measured after 48 hrs by SRB assay relative to control; type: functional; settings: read-out: GI
[18] = molecular target: RAF proto-oncogene serine/threonine-protein kinase (Homo sapiens, UniProt P04049); experiment: Inhibition of human CRAF using MEK1 (K97R) as substrate in presence of [gamma-33P]ATP by scintillation counting method
[19] = molecular target: Serine/threonine-protein kinase B-raf (Homo sapiens, UniProt P15056); experiment: Inhibition of human BRAF using MEK1 (K97R) as substrate in presence of [gamma-33P]ATP by scintillation counting method
[20] = molecular target: Serine/threonine-protein kinase B-raf (Homo sapiens, UniProt P15056, V600E); experiment: Inhibition of human BRAF V600E mutant using MEK1 (K97R) as substrate in presence of [gamma-33P]ATP by scintillation counting method
[21] = species: Homo sapiens; experiment: Selectivity ratio of IC50 for inhibition of human BRAF V600E mutant to IC50 for inhibition of human CRAF

Chain of Serine/threonine-protein kinase B-raf (Homo sapiens, UniProt P15056) (P15056 whole entry): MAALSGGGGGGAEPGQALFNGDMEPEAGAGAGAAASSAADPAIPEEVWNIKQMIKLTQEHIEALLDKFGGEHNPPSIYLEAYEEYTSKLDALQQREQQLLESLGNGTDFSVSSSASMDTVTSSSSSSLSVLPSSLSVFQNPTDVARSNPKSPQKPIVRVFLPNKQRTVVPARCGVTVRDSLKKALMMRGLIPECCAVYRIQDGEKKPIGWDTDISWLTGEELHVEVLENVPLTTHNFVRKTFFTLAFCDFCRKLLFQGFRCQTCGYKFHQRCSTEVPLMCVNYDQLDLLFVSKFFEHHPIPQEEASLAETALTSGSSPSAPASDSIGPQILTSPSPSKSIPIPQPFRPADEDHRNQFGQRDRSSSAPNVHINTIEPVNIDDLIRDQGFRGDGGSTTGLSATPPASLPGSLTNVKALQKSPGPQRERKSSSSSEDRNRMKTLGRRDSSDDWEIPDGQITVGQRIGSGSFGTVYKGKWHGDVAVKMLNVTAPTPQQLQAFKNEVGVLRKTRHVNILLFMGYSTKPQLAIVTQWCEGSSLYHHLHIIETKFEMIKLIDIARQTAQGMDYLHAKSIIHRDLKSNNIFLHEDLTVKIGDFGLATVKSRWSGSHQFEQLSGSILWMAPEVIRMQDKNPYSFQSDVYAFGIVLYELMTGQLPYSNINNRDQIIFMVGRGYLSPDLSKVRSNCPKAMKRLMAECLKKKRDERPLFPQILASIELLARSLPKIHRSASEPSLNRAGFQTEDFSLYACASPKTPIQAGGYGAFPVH
Chain of Serine/threonine-protein kinase B-raf (Homo sapiens, UniProt P15056, V600E) (P15056 2-766 V600E limits assumed): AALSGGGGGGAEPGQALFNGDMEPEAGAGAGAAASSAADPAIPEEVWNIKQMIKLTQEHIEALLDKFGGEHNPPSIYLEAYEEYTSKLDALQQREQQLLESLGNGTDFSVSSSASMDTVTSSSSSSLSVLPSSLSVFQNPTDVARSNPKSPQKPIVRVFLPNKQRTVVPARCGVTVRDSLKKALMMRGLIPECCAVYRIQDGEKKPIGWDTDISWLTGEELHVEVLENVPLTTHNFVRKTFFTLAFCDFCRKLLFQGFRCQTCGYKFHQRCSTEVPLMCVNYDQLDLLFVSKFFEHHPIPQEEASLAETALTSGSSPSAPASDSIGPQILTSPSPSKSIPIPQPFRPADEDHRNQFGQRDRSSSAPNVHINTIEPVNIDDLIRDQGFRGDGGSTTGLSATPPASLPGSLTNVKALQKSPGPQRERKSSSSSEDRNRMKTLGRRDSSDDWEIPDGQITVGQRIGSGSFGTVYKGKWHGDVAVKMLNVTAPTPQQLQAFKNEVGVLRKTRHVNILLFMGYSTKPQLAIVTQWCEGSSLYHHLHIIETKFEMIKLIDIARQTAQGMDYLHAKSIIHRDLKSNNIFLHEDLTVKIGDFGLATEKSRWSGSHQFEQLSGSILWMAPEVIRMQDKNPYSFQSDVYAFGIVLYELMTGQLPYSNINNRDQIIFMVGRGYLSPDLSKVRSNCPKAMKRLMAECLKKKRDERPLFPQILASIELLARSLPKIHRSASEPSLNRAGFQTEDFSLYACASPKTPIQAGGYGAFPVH
Chain of RAF proto-oncogene serine/threonine-protein kinase (P04049 whole entry): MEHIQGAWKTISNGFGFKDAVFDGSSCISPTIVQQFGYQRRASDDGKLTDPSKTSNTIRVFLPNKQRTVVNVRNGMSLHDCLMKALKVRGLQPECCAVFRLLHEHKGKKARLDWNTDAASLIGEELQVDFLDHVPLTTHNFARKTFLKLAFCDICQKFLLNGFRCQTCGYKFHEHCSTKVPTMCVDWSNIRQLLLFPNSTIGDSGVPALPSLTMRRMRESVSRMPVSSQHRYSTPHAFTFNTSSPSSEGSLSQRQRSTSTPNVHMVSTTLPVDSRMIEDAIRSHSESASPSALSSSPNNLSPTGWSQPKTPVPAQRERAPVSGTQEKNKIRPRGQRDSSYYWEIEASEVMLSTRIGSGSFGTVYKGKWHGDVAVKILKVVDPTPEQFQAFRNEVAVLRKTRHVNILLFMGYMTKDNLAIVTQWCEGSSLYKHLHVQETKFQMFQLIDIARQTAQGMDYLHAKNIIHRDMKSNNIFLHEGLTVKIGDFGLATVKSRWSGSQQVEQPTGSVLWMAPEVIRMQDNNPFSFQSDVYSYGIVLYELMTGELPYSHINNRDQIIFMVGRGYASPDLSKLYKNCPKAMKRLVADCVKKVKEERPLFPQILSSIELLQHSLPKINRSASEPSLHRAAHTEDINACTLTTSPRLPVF

IC50 [18] [µM]	IC50 [19] [µM]	IC50 [20] [µM]	SMILES	inhibition of growth at 10 µM [2] [%]	inhibition of growth at 10 µM [3] [%]	inhibition of growth at 10 µM [4] [%]	inhibition of growth at 10 µM [5] [%]	inhibition of growth at 10 µM [6] [%]	inhibition of growth at 10 µM [7] [%]	inhibition of growth at 10 µM [8] [%]	inhibition of growth at 10 µM [9] [%]	inhibition of growth at 10 µM [10] [%]	inhibition of growth at 10 µM [11] [%]	inhibition of growth at 10 µM [12] [%]	inhibition of growth at 10 µM [13] [%]	inhibition of growth at 10 µM [14] [%]	inhibition of growth at 10 µM [15] [%]	inhibition of growth at 10 µM [16] [%]	inhibition of growth at 10 µM [17] [%]	further results
			CC(=O)O[C@H]1C(=O)[C@@]2(C)[C@H]([C@H](OC(=O)c3ccccc3)[C@]3(O)C[C@H](OC(=O)[C@H](O)[C@@H](NC(=O)c4ccccc4)c4ccccc4)C(C)=C1C3(C)C)[C@]1(OC(C)=O)CO[C@@H]1C[C@@H]2O																	Activity [1]: Active
			COc1cccc2nc(Nc3cccc(NC(=O)c4ccc5ncccc5c4)c3)ccc12	28.6	36.9	61.1	64.2	94.6	55.9	20.9	48.5	< 20	53.3	42.4	51.4	< 20	22.9	56.2	58	
4.79	> 100	9.45	COc1cccc2nc(Nc3cccc(NC(=O)c4cc(C(F)(F)F)cc(C(F)(F)F)c4)c3)ccc12	13.6	34.4	77.3	65.2	41.9	57.4	48	67.5	23.5	< 20	< 20	< 20	28.6	28.2	62.7	< 20	
0.616	5.87	1.49	COc1cccc2nc(Nc3cccc(NC(=O)c4cc(N5CCOCC5)cc(C(F)(F)F)c4)c3)ccc12	38.3																Ratio IC50 [21]: 2
			COc1cccc2nc(Nc3cccc(NC(=O)c4cccc(Cl)n4)c3)ccc12	4.88	< 20	< 20	23.3	< 20	< 20	< 20	< 20	< 20	< 20	< 20	< 20	32.4	< 20	20.6	< 20	
			COc1cccc2nc(Nc3cccc(NC(=O)c4ccc5c(c4)OCCO5)c3)ccc12	17.8	33.4	67.8	75.2	39.7	56.7	< 20	< 20	< 20	32.5	< 20	48.3	26.2	< 20	32.1	46	
1.44	40.9	4.57	COc1cccc2nc(Nc3cccc(NC(=O)c4ccc(N5CCOCC5)c(C(F)(F)F)c4)c3)ccc12	59										87.2						Ratio IC50 [21]: 2
			COc1cccc2nc(Nc3cccc(NC(=O)c4ccc(Cl)c(C(F)(F)F)c4)c3)ccc12	12.9	32.9	56.8	54.8	31.8	48	< 20	21.5	27.4	< 20	< 20	< 20	27.5	37.6	50.3	21.3	
			COc1cccc2nc(Nc3ccc(NC(=O)c4ccc(Cl)c(C(F)(F)F)c4)cc3)ccc12	6.32	< 20	47.5	27.6	< 20	< 20	< 20	32	< 20	< 20	21.8	< 20	22.6	< 20	< 20	< 20	
0.414	9.28	1.1	COc1cccc2nc(Nc3cccc(NC(=O)c4cc(-n5cnc(C)c5)cc(C(F)(F)F)c4)c3)ccc12	32.6																Ratio IC50 [21]: 2
			COc1cccc2nc(Nc3ccc(NC(=O)c4ccc5c(c4)OCCO5)cc3)ccc12	-1.17	< 20	< 20	< 20	< 20	< 20	< 20	< 20	< 20	< 20	< 20	< 20	< 20	< 20	< 20	< 20	
